# Values quoted from earlier work as cited in US9315472B2, “1,3,5-triazinane-2,4,6-trione derivatives and uses thereof” (Massachusetts Institute of Technology, priority 2013, dated 2016).
# Like-named read-outs stand apart in the source and are kept apart here.
# Experiments:
# [1] = mouse, in vivo, po
# [2] = rat, in vivo, po
compound,measurement,setting,value
O=c1n(CC2CO2)c(=O)n(CC2CO2)c(=O)n1CC1CO1 (centres unmarked) [Compound 1],tolerability,[1],tolerated
same,tolerability,[2],tolerated
